Legend:
acetylcholinesterase = settings: insects and mammals; cited from earlier work
[1] = reported by US EPA; cited from earlier work
mosquitoes = settings: absence of body odor attractants such as 1-octen-3-ol, lactic acid, or carbon dioxide; cited from earlier work
drosophila = assay: Tests in vivo on drosophila: two-tube repellency test, Repulsive Index; set-up: key to RI against drosophila (FIG. 1) / RI (FIG. 2 and 3): RI = (N1−N2)/(N1+N2); N1 solvent tube, N2 compound tube; settings: concentration not given
Procedure: Description of Test system. To evaluate repellent efficacy, compounds were added to test chambers, each containing 40 drosophila. The test was performed in 3 phases: 1) fast (flies aspirated to test tubes); 2) implementation of the system (addition of filter paper, addition of solvent containing test compound); and 3) counting of the flies (after 22 hours exposure to test compound). The number of drosophila in each tube were counted: number of flies in the “filter paper+Solvent” tube was designated N1 and the number of flies in the “filter paper impregnated with test compound” was designated N2.
The Repulsive Index (R1) is given by the following equation: (N1−N2)/(N1+N2).

In the case of `CCN(CC)C(=O)c1cccc(C)c1` [DEET, N,N-Diethyl-meta-toluamide], the “activity on acetylcholinesterase, in words” value (acetylcholinesterase) is given as “inhibit the activity”, the “deaths among the potential DEET-associated seizure cases” value [1] is given as 4 deaths and the “repellent activity in behavioral test, in words” value (mosquitoes) is given as “strong repellent activity”. The “RI against drosophila (FIG. 1)” value (drosophila) was greater than 0.9.

— patent publication US20120329832A1, “Novel Insect-Repellent Coumarin Derivatives, Syntheses, and Methods of Use” (priority 2011, published 2012)
